In patent US20040023924A1, “Use of xyloglucan polymers and oligomers, and derivative compounds, as phytosanitary products and biofertilizers” (priority 2000, published 2004):

Experiments:
Assay type in all cases: cell-based, Acer pseudoplatanus L.
[1] = tested on: Phospholipase D (E.C: 3.1.4.4); experiment: Elicitation of phospholipase D activity (NBD-PE fluorescence); conditions: methyl jasmonate 0 to 5 nM; 2′-fucosyl lactose 1 nM; dose-dependent
Excerpt: Vegetable material: Acer pseudoplatanus L. cells in Suspension
Phospholipase D (E.C: 3.1.4.4) (Plase D) activity: this is a phosphatidylcholine phosphatidohydrolase which releases the O-R3 group, according to the diagram below. To the extent that O-R3 is marked (a fluorochrome for example), quantifying this group is equivalent to assaying Plase D activity. For the experiments the substrate used is phosphatidylcholine conjugated to a fluorochrome, i.e. the product nitrobenzoxadiazole phosphoethanolamine (NBD-PE). The retained excitation and emission wavelengths of the fluorochrome are 460 nm and 534 nm respectively. [drawing 5]
Principle: assaying Plase D activity is equivalent to estimating the fluorescence variation at 534 nm of a reaction medium with a spectrofluorimeter (Perkin Elmer).
Test: the reaction medium in a microtitration plate well is as follows: 1.3 10^7 Acer pseudoplatanus L. cells are incubated in a 50 mM HEPES buffer, pH 6.8 enriched with CaCl2 (1 μM), ATP (2 μM), octyl-D-glucoside 50 μM, GTP (6 μM) in the presence of the NBD-PE substrate (4 μM), in the presence or absence of an elicitor (0-100 nM): 2′-fucosyl-lactose (FL), compound A; XXFGol, compound B, in the presence or not in the presence of a methyl jasmonate effector (0-5 nM). The Plase D activity assay is carried out by measuring the fluorescence at 534 nm.
Evaluation of the experimental data. For each sample at least three kinetics are recorded; the Plase D activity is given by the slope of the regression curve. The results are expressed by Δ F534 min^−1. One point on the graph corresponds to the linear regression treatment of at least 2 kinetic curves originating from 2 different samples.
The Plase D elicitation response is evaluated according to the fluorescence variation at […]; the 100% reference value corresponds to the fluorescence in the controls (non-elicited cells)

[2] = tested on: glycosylhydrolases; experiment: Effect of effectors on the glycosylhydrolase elicitation responses; conditions: okadaic acid 5 nM, boroglycine 500 nM; for Early glycosylhydrolase elicitation responses in the presence of the effector: cycloheximide 1 μM, modulation with the exception of 1,3 β-D-glucanase activity
Experimental: (§1) Test: 2.10^6 Acer pseudoplatanus L. cells were elicited under circular stirring (80 rpm), in 25 ml of culture medium (without 2,4-D) by 50 nM of 2′-fucosyl lactose (compound A) or 50 nM of methyl α-L-Fuc (1→2) β-D-Gal (1→2) β-D-Xyl trisaccharide (compound B)(synthesized according to Lopez et al., 1994) or for a variable time (0 to 42 hours) in the presence or not in the presence of an effector: cycloheximide (1 μM), okadaic acid (5 nM), staurosporine (500 nM), or boroglycine (500 nM). The elicitation experiment is stopped by putting the cells in ice. The cells recovered after decantation and taken up in approximately 1 ml of elicitation buffer are the subject of a specific protein extraction.
(§2) D-glycosylhydrolase extraction. The enzyme extracts are prepared from elicited or non-elicited cells. The cells are homogenized at 0° C. in Tris-HCl buffer (50 mM pH 7.2) containing 1 M of NaCl with a Vibracell™ Bioblock sonicator, maximum power, for 3 times 1 minute. The homogenates are centrifuged at 4° C. (12000 g, 15 minutes) then dialysed and concentrated on Ultrafree™ Millipore ultrafiltration units (cut-off threshold 10 kDa). The retentates, taken up in distilled water, are crude extracts.
(§3) Evaluation of the experimental data. At least 2 kinetics were carried out per sample, and per set of experiments. The reaction rate (ΔA410 minutes^−1 for example) is obtained by linear regression from 4 kinetic curves. The results are expressed by the ratio R (enzymatic activity in elicited cells/enzymatic activity in non-elicited control cells).

[3] = tested on: 1,4 β-D-glucanase (EC 3.2.1.4); experiment: Induction of a 1,4 β-D-glucanase response in elicited cells; conditions: elicited cells; cycloheximide (1 μM); late response
Experimental: (§4) Vegetable material: Acer pseudoplatanus L Cells in Suspension
as §1, §2
(§5) 1,4 β-D-glucanase activity assay. This is based on colorimetric assay (ferricyanide test of Kidby and Davidson (1973) of the cellopentaose substrate reducing units released during the hydrolysis. The reaction medium contains the enzyme extract (1 μg of proteins), reduced cellopentaose (4 μM) in 100 μl of sodium acetate buffer (0.1 M), pH 5.0); the enzymatic reaction at 40° C. develops over a variable time (1 to 3 hours).
as §3

[4] = tested on: 1,3 β-D-glucanase (EC 3.2.1.39); experiment: Induction of a 1,3 β-D-glucanase response in elicited cells; conditions: elicited cells; cycloheximide (1 μM); late response
Experimental: as §4, §1, §2
as §5, with “1,3” for “1,4”, “the” for “the cellopentaose”, “units (laminarin or laminarin hexamer)” for “units”, “proteins), the substrate (5 μM of” for “proteins),”, “laminarin hexamer)” for “cellopentaose (4 μM)”
as §3

CC/C=C\CC1C(=O)CCC1CC(=O)OC (centres unmarked) [methyl jasmonate, reference compound]
Plase D elicitation: methyl jasmonate versus 2′-fucosyl lactose [1]: antagonistic

C=C1[C@@H](O)[C@@H]2O[C@]3(CC[C@H](/C=C/[C@@H](C)[C@@H]4CC(C)=C[C@@]5(O[C@H](C[C@@](C)(O)C(=O)O)CC[C@H]5O)O4)O3)CC[C@H]2O[C@@H]1[C@@H](O)C[C@H](C)[C@H]1O[C@@]2(CCCCO2)CC[C@H]1C [okadaic acid]
Early glycosylhydrolase elicitation responses in the presence of the effector [2]: modulated | Late glycosylhydrolase elicitation responses in the presence of the effector [2]: not affected

boroglycine
Early glycosylhydrolase elicitation responses in the presence of the effector [2]: modulated | Late glycosylhydrolase elicitation responses in the presence of the effector [2]: not affected

C[C@@H]1C[C@@H]([C@H](O)CC2CC(=O)NC(=O)C2)C(=O)[C@@H](C)C1 [cycloheximide, reference compound]
1,4 β-D-glucanase late response R in the presence of cycloheximide [3]: ~2 | Early glycosylhydrolase elicitation responses in the presence of the effector [2]: maintained | 1,3 β-D-glucanase late response R in the presence of cycloheximide [4]: ~3
